These results are taken from article PMC11396514, “Synthesis and Biological Evaluation of Novel Piperidine-3-Carboxamide Derivatives as Anti-Osteoporosis Agents Targeting Cathepsin K” (Molecules, 2024).

For one data set, the target named is T1, Recombinant human Cat K (Homo sapiens, UniProt P43235).
T1 sequence (P43235 115-329): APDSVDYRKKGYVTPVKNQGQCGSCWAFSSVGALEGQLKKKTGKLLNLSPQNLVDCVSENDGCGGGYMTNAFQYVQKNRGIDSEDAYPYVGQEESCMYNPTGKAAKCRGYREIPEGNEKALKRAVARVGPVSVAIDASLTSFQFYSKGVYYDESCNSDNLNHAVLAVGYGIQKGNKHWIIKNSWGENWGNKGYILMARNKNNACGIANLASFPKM
The experiment in a line: In vitro enzymatic assay of Cat K inhibition (Z-Phe-Arg-AMC fluorescence). It is filed as biochemical. As to conditions: pH 6.0, substrate Z-Phe-Arg-AMC, read-out: Cat K IC50 (µM) ± SD. On the procedure:
Compounds were tested at eight concentrations (100–0.001 µM). Recombinant human Cat K (5.5 ng/mL) in reaction buffer (50 µL) containing sodium acetate (50 mM), EDTA (2.5 mM), and DTT (1 mM) was added to a 96-well plate containing the test compounds at pH 6.0. The plate was incubated at 37 °C for 15 min, and the fluorescence (F1) was measured at 355 nm excitation and 460 nm emission using a microplate reader (Wallac 1420 Victor2, Norwalk, CA, USA). Subsequently, Z-Phe-Arg-AMC (20 µL, 10 µM) was added, and the plate was incubated at 37 °C for 1 h. Fluorescence (F2) was measured again at 355 nm excitation and 460 nm emission. The inhibition rate was calculated using the formula: inhibition (%) = [control (F2 − F1) − sample (F2–F1)]/[control (F2 − F1) − blank (F2 − F1)] × 100%. IC50 values were calculated using the SPSS 17.0 software.

Data set [1] concerns RANKL-induced RAW264.7 cells. In words: In vitro anti-bone resorption assay: CTX-I released into culture medium (ELISA), cells on bovine femur slices. It is filed as cell-based. As to conditions: compound 1 µM, 5 days; for CTX-I concentration compared to the model group (in words): vs untreated model group. The source says: (§1) Type I collagen, the predominant structural protein in bone, constitutes approximately 90% of the bone matrix protein [22]. During bone renewal, type I collagen is degraded, releasing short peptide fragments such as the C-terminal peptide of type I collagen (CTX-I) into the bloodstream. The concentration of CTX-I in the patient’s blood serves as a crucial biomarker for evaluating the degree of osteoporosis. In vitro, bone resorption can be assessed by measuring the concentration of CTX-I using a model in which osteoclasts are cultured on bone slices. In this experiment, the in vitro anti-bone resorption activities of the test compounds were evaluated in RANKL-induced RAW264.7 cells. This evaluation was based on the concentration of CTX-I released into the cell culture medium due to bone degradation, as well as the area of bone resorption pits formed on bone slices.
(§2) RAW264.7 cells, obtained from the cell bank of the Chinese Academy of Medical Sciences, were seeded into 96-well plates at a density of 1 × 10^5 cells per well with bovine femur slices. To induce cell differentiation, 50 ng mL^−1 of RANKL was added to the RAW264.7 cells. The cells were cultured for 5 days at 37 °C under 5% CO2 with the test compounds at a concentration of 1 µM. The culture supernatant was collected to measure the CTX-I concentration using ELISA. The bone slices were fixed with 2.5% glutaraldehyde for 7 min, then washed 3 times with 0.25 mol/L ammonium hydroxide, dehydrated using a series of ethanol solutions (40%, 75%, 80%, 95%, and anhydrous ethanol), and dried naturally. After staining with 1% toluidine blue solution at room temperature for 3–4 min, the bone slices were rinsed with distilled water and analyzed using an optical microscope. Bone resorption areas were calculated using image analysis software (iBright CL1500, Redmond, WA, USA).

In data set [2] the test system is RANKL-induced RAW264.7 cells. In words: In vitro anti-bone resorption assay: area of bone resorption pits on bone slices (toluidine blue). It is filed as cell-based. As to conditions: compound 1 µM, 5 days, compared with MIV-711 / model group.
Description: as §1, §2

In the case of `COc1ccc(S(=O)(=O)N2CCC[C@@H](C(=O)NCc3ccccc3OC)C2)cc1` [Compound H-4, (R)-N-(2-methoxybenzyl)-1-((4-methoxyphenyl)sulfonyl)piperidine-3-carboxamide], the melting point was 143.7 to 144.2 °C. On Recombinant human Cat K, the IC50 was 2.48 ± 0.37 µM.
For `C#C[C@@H]1CN(C(=O)[C@H](CC(C)C)NC(=O)c2ccc(-c3nc(N4CCN(C)CC4)sc3F)cc2)[C@@H]2C(=O)CO[C@H]12` [MIV-711, reference compound], the IC50 at Recombinant human Cat K is 0.09 ± 0.02 µM. For the same molecule, in data set [1] (ELISA), the “CTX-I concentration in the cell culture medium” value is listed as 21.73 ± 3.18 nM.
Molecule `COc1ccc(CNC(=O)[C@@H]2CCCN(S(=O)(=O)c3ccccc3Cl)C2)cc1` [Compound H-16, (R)-1-((2-chlorophenyl)sulfonyl)-N-(4-methoxybenzyl)piperidine-3-carboxamide] registered a melting point of 162.3 to 164.5 °C. For the same molecule, the concentration for half-maximal inhibition (IC50) on Recombinant human Cat K was 2.03 ± 0.43 µM. Also, the “CTX-I concentration compared to the model group (in words)” value in data set [1] is “reduced CTX-I concentration”.
Turning to `COc1ccc(S(=O)(=O)N2CCC[C@@H](C(=O)NCc3cccc(Br)c3)C2)cc1` [Compound H-11, (R)-N-(3-bromobenzyl)-1-((4-methoxyphenyl)sulfonyl)piperidine-3-carboxamide], the melting point lay in the range of 124.7 to 126.5 °C. Besides, on Recombinant human Cat K, the IC50 amounted to 0.66 ± 0.2 µM. For the same molecule, the “CTX-I concentration compared to the model group (in words)” value in data set [1] was “reduced CTX-I concentration”.
For the molecule `COc1ccc(S(=O)(=O)N2CCC[C@@H](C(=O)NCc3ccccc3Br)C2)cc1` [Compound H-10, (R)-N-(2-bromobenzyl)-1-((4-methoxyphenyl)sulfonyl)piperidine-3-carboxamide], the melting point is 153.7 to 154.5 °C. Also, the IC50 at Recombinant human Cat K is 2.18 ± 0.39 µM.
For `COc1ccc(CNC(=O)[C@@H]2CCCN(S(=O)(=O)c3cccc(Br)c3)C2)cc1` [Compound H-14, (R)-1-((3-bromophenyl)sulfonyl)-N-(4-methoxybenzyl)piperidine-3-carboxamide], in that order: 203.5 to 204.2 °C and 0.91 ± 0.15 µM.
The matching figures for `COc1ccc(CNC(=O)[C@@H]2CCCN(S(=O)(=O)c3ccc(Cl)cc3)C2)cc1` [Compound H-18, (R)-1-((4-chlorophenyl)sulfonyl)-N-(4-methoxybenzyl)piperidine-3-carboxamide]: 147 to 148.7 °C and 0.78 ± 0.3 µM.
`COc1ccc(S(=O)(=O)N2CCC[C@@H](C(=O)NCc3cccc(Cl)c3)C2)cc1` [Compound H-8, (R)-N-(3-chlorobenzyl)-1-((4-methoxyphenyl)sulfonyl)piperidine-3-carboxamide]: the melting point lay in the range of 146.1 to 148.7 °C. Besides, at Recombinant human Cat K, the IC50 is 0.45 ± 0.11 µM. Besides, the “CTX-I concentration compared to the model group (in words)” value in data set [1] is listed as “reduced CTX-I concentration”.
`COc1ccc(CNC(=O)[C@@H]2CCCN(S(=O)(=O)c3ccccc3C)C2)cc1` [Compound H-19, (R)-N-(4-methoxybenzyl)-1-(o-tolylsulfonyl)piperidine-3-carboxamide]: the melting point fell in the range of 108.3 to 109.4 °C. On Recombinant human Cat K, the IC50 stood at 5.33 ± 0.94 µM.
The matching figures for `COc1ccc(S(=O)(=O)N2CCC[C@@H](C(=O)NCc3cccc(C)c3)C2)cc1` [Compound H-2, (R)-1-((4-methoxyphenyl)sulfonyl)-N-(3-methylbenzyl)piperidine-3-carboxamide]: 189.8 to 190.1 °C and 4.76 ± 0.71 µM.
Turning to `COc1ccc(CNC(=O)[C@@H]2CCCN(S(=O)(=O)c3ccccc3Br)C2)cc1` [Compound H-13, (R)-1-((2-bromophenyl)sulfonyl)-N-(4-methoxybenzyl)piperidine-3-carboxamide], the melting point was 189.5 to 190.5 °C. Further, on Recombinant human Cat K, the IC50 was 0.74 ± 0.12 µM. The “CTX-I concentration compared to the model group (in words)” value in data set [1] is “reduced CTX-I concentration”.
`COc1ccc(CNC(=O)[C@@H]2CCCN(S(=O)(=O)c3ccc(OC)cc3)C2)cc1` [Compound H-6, (R)-N-(4-methoxybenzyl)-1-((4-methoxyphenyl)sulfonyl)piperidine-3-carboxamide] registered a melting point of 139.4 to 140.9 °C. Further, the IC50 on Recombinant human Cat K stood at 3.64 ± 0.39 µM.
`COc1ccc(S(=O)(=O)N2CCC[C@@H](C(=O)NCc3ccc(Br)cc3)C2)cc1` [Compound H-12, (R)-N-(4-bromobenzyl)-1-((4-methoxyphenyl)sulfonyl)piperidine-3-carboxamide] had a melting point of 148.1 to 149.3 °C. The IC50 at Recombinant human Cat K was found to be 0.22 ± 0.05 µM. For the same molecule, the “CTX-I concentration compared to the model group (in words)” value in data set [1] is listed as “reduced CTX-I concentration”. Moreover, the “Anti-bone resorption activity by area of bone resorption pits (in words)” value in data set [2] is “comparable to that of MIV-711”.
In the case of `COc1ccc(S(=O)(=O)N2CCC[C@@H](C(=O)NCc3ccc(C)cc3)C2)cc1` [Compound H-3, (R)-1-((4-methoxyphenyl)sulfonyl)-N-(4-methylbenzyl)piperidine-3-carboxamide], the melting point lay within 182.3 to 182.7 °C. The IC50 on Recombinant human Cat K came to 4.39 ± 0.65 µM.
The matching figures for `COc1ccc(CNC(=O)[C@@H]2CCCN(S(=O)(=O)c3cccc(C)c3)C2)cc1` [Compound H-20, (R)-N-(4-methoxybenzyl)-1-(m-tolylsulfonyl)piperidine-3-carboxamide]: 152.6 to 154.2 °C and 3.82 ± 0.91 µM.
For `COc1ccc(CNC(=O)[C@@H]2CCCN(S(=O)(=O)c3ccc(Br)cc3)C2)cc1` [Compound H-15, (R)-1-((4-bromophenyl)sulfonyl)-N-(4-methoxybenzyl)piperidine-3-carboxamide], in that order: 152.4 to 154.4 °C and 0.85 ± 0.19 µM.
The matching figures for `COc1ccc(S(=O)(=O)N2CCC[C@@H](C(=O)NCc3cccc(OC)c3)C2)cc1` [Compound H-5, (R)-N-(3-methoxybenzyl)-1-((4-methoxyphenyl)sulfonyl)piperidine-3-carboxamide]: 130.2 to 131.2 °C and 2.93 ± 0.4 µM.
`COc1ccc(CNC(=O)[C@@H]2CCCN(S(=O)(=O)c3ccc(C)cc3)C2)cc1` [Compound H-21, (R)-N-(4-methoxybenzyl)-1-tosylpiperidine-3-carboxamide] gave a melting point of 162.9 to 163.7 °C. Moreover, the IC50 on Recombinant human Cat K amounted to 3.65 ± 0.86 µM.
`COc1ccc(CNC(=O)[C@@H]2CCCN(S(=O)(=O)c3cccc(Cl)c3)C2)cc1` [Compound H-17, (R)-1-((3-chlorophenyl)sulfonyl)-N-(4-methoxybenzyl)piperidine-3-carboxamide] gave a melting point of 117.1 to 119.9 °C. Moreover, the IC50 at Recombinant human Cat K is 0.47 ± 0.12 µM. For the same molecule, in data set [1], the “CTX-I concentration compared to the model group (in words)” value is given as “reduced CTX-I concentration”. Moreover, in data set [2], the “Anti-bone resorption activity by area of bone resorption pits (in words)” value is “comparable to that of MIV-711”.
The molecule `COc1ccc(S(=O)(=O)N2CCC[C@@H](C(=O)NCc3ccccc3C)C2)cc1` [Compound H-1, (R)-1-((4-methoxyphenyl)sulfonyl)-N-(2-methylbenzyl)piperidine-3-carboxamide] displayed a melting point of 170.4 to 171.4 °C. On Recombinant human Cat K, the IC50 came to 3.52 ± 0.44 µM.
The matching figures for `COc1ccc(S(=O)(=O)N2CCC[C@@H](C(=O)NCc3ccccc3Cl)C2)cc1` [Compound H-7, (R)-N-(2-chlorobenzyl)-1-((4-methoxyphenyl)sulfonyl)piperidine-3-carboxamide]: 192.3 to 193.6 °C and 1.06 ± 0.18 µM.
Turning to `COc1ccc(S(=O)(=O)N2CCC[C@@H](C(C)=O)C2)cc1` [Compound F-12], the IC50 on Recombinant human Cat K was 13.5 ± 2.16 µM.
